This passage reports EC50 results from patent EP3153515A1, “COMPOUNDS FOR INHIBITING HEPATITIS C VIRUS, PHARMACEUTICAL COMPOSITIONS AND USES THEREOF” (priority 2014, dated 2015).

Structures are written as SMILES. pEC50: −log10 of the molar value. Where two headings read alike, the source gives them in different places.

The assay relates to HCV NS5A replicon GT-1a. The assay is described as follows: HCV NS5A replicon anti-viral activity (EC50), dual-reporter Renilla luciferase, GT-1a. Format: cell-based. The source says:
The autonomous replication level of HCV in liver cells in vitro is very low, and the only animal that can be infected by HCV is chimpanzee, therefore there is no appropriate animal model currently available for preclinical pharmacodynamic study. Some researchers have transplanted human liver tissue infected with HCV in vitro into immune deficient mice to establish an in vivo mice model, but these mice are hard to raise and the model is unstable and short of normal immunologic reaction. Moreover, the model has significant difference with the pathogenic process of hepatitis C, therefore, it has not been used for animal model to assess the action of anti-HCV medicine yet. The progress of the development of anti-viral drugs for the treatment of HCV infection had been very slow because the pathogenic mechanism and life cycle of HCV were unclear before 1999 due to the lack of cell culture system for effective multiplication of HCV. But researchers managed to achieve a breakthrough in 1999 after numerous attempts. An effective cell culture model-replicon system in which HCV is capable of autonomous replication in transfected human hepatic carcinoma cell line Huh-7 had been established in that year on the basis of subgenomic HCV RNA built with genetic engineering.
The above-mentioned cell culture model-replicon system which has been widely accepted in the industry is used in this invention for ex vivo experiments and subsequent assessment of drugs based on the experiment results.
The therapeutic effect of the compounds of this invention on HCV infection can be preliminarily assessed through the following preclinical in vitro inhibitory action test and can be further confirmed in clinical trials. Other methods used in the invention are also quite familiar to professionals in this field with ordinary technical knowledge. Method for testing the anti-viral activity(EC50) in HCV NS5A replicon system: • The viral replication level in infected cells was determined by testing Renilla luciferase with the newly established dual-reporter gene replicon system. There was a good linear relation between the expression level of the reporter gene and the HCV RNA replication level and viral protein expression level. The anti-viral activity was determined for 3 replicates in 3 replicate cells at five(5) 1:2 diluted concentration gradients, with 1 to 2 positive controls. The EC50 of the compounds was calculated in the end.
The compounds of the invention, or their stereoisomers, tautomers, esterified or amidated prodrugs, or pharmaceutically acceptable salts and mixtures have been subjected to test to determined their therapeutic effects in the treatment of HCV infection. […] Moreover, the results of 6a-6ep(Ia), 6fa-6gq(Ib) and reference compounds Ref-1(BMS-790052), Ref-2(GS5885), Ref-3 in HCV-NS5 inhibition test reveal that the cyclopentanyl/hexamethyleneamino radical containing linear polypeptide compounds 6a-6ep, 6fa-6gq and reference compounds Ref-1, Ref-2, Ref-3 have good HCV inhibitory results. […] The replicons GT-1a, GT-lb, GT-2a, GT-3a, GT-4a, GT-5a and GT-6a used for the test are routine replicons commercially available in this field. Table 1: HCV NS5A replicon inhibitory activity test results of compounds (6a-6gq) of the invention

Where [1] appears, read: Hepatitis C virus, GT1A, GT-1a replicon, read-out: NS5A Inhibitory Activity (EC50 of GT-1a subtype inhibition).

Turning to `CNC(=O)NC(C(=O)N1CC=C[C@H]1c1ncc(-c2ccc(-c3ccc(-c4cnc([C@@H]5CCCN5C(=O)C(NC(=O)NC)c5ccccc5)[nH]4)cc3)cc2)[nH]1)c1ccccc1` (stereo partly drawn) [6cf], the pEC50 under setting [1] is 9.00 to 12.00. As to `CNC(=O)N[C@@H](C(=O)N1CCC[C@H]1c1ncc(-c2ccc(-c3ccc(-c4cnc([C@@H]5C=CCN5C(=O)[C@@H](NC(=O)OC)C(C)C)[nH]4)cc3)cc2)[nH]1)c1ccccc1` [6dg], the pEC50 under setting [1] is 9.00 to 12.00.

For `CNC(=O)N[C@H](C(=O)N1CC=C[C@H]1c1ncc(-c2ccc(-c3ccc(-c4cnc([C@@H]5CCCN5C(=O)[C@@H](NC(=O)OC)C(C)C)[nH]4)cc3)cc2)[nH]1)C(C)C` [6cj], under setting [1], the pEC50 was 9.00 to 12.00.

With `COC(=O)N[C@H](C(=O)N1CC2(CC2)C[C@H]1c1nc(-c2ccc3c(c2)C(F)(F)c2cc(-c4ccc5[nH]c([C@@H]6[C@H]7CC[C@H](C7)N6C(=O)[C@@H](NC(=O)OC)C(C)C)nc5c4)ccc2-3)c[nH]1)C(C)C` [Ref-2, GS5885, reference compound], the negative-log EC50 (pEC50) (Hepatitis C virus, GT1A, read-out: NS5A Inhibitory Activity (EC50 of GT-1a subtype inhibition)) was 9.00 to 12.00 and the pEC50 (Hepatitis C virus, genotype 1a / genotype 6a, read-out: Inhibitory activity against various HCV-NS5A subtypes(EC50, GT-1a to GT-6a) GT-1a) is 10.06. `COC(=O)N[C@H](C(=O)N1CCC[C@H]1c1ncc(-c2ccc(-c3ccc(-c4cnc([C@@H]5CNCN5C(=O)[C@@H](NC(=O)OC)C(C)C)[nH]4)cc3)cc2)[nH]1)C(C)C` [6cu]: under setting [1], the pEC50 is 9.00 to 12.00. On to `COC(=O)N[C@H](C(=O)N1CCC[C@H]1c1nc2cc(-c3csc4c(-c5ccc(-c6c[nH]c([C@@H]7CCCN7C(=O)[C@H](NC(=O)OC)c7ccccc7)n6)cc5)csc34)ccc2[nH]1)C(C)C` [Ref-4, IDX-719, reference compound], for which the pEC50 reads like this: (GT-1a replicon, read-out: Inhibitory activity against various HCV-NS5A subtypes(EC50, GT-1a to GT-6a) GT-1a) 10.66; (GT-1a replicon, read-out: NS5A Inhibitory Activity (EC50 of GT-1a subtype inhibition)) 9.00 to 12.00. For the molecule `COC(=O)N[C@H](C(=O)N1CCC[C@H]1c1ncc(-c2ccc(-c3csc4c(-c5ccc6nc([C@@H]7C=CCN7C(=O)[C@H](NC(=O)OC)c7ccccc7)[nH]c6c5)csc34)cc2)[nH]1)C(C)C` [6ga], under setting [1], the pEC50 is 9.00 to 12.00. Take `COC(=O)N[C@H](C(=O)N1CCC[C@H]1c1nc2ccc(-c3ccc(-c4ccc5nc([C@@H]6C=CCN6C(=O)[C@H](NC(=O)OC)c6ccccc6)[nH]c5c4)c4c3CC3(CCCCC3)C4)cc2[nH]1)C(C)C` [6ep]: the pEC50 under setting [1] is 7.30 to 9.00. In the case of `COC(=O)N[C@H](C(=O)N1CC=C[C@H]1c1nc(-c2ccc(-c3ccc(-c4c[nH]c([C@@H]5CCCN5C(=O)C5(NC(=O)OC)CC5)n4)cc3)cc2)c[nH]1)C(C)C` [6bh], the pEC50 under setting [1] is 9.00 to 12.00.

On to `COC(=O)NC(C(=O)N1CC=C[C@H]1c1ncc(-c2ccc(-c3ccc(-c4cnc([C@@H]5C=CCN5C(=O)C(NC(=O)OC)c5ccccc5)[nH]4)cc3)cc2)[nH]1)c1ccccc1` (stereo partly drawn) [6ca], for which the pEC50 under setting [1] is 9.00 to 12.00. Turning to `COC(=O)N[C@H](C(=O)N1CCC[C@H]1c1nc2ccc(-c3csc4c(-c5ccc(-c6cnc([C@@H]7C=CCN7C(=O)[C@H](NC(=O)OC)c7ccc(C)cc7)[nH]6)cc5)csc34)cc2[nH]1)C(C)C` [6fw], the pEC50 under setting [1] is 9.00 to 12.00. With `COC(=O)N[C@@H](C(=O)N1CC=C[C@H]1c1ncc(-c2ccc(-c3cc4sc(-c5cnc([C@@H]6CCCN6C(=O)[C@H](NC(=O)OC)c6ccccc6)[nH]5)cc4o3)cc2)[nH]1)c1ccccc1` [6fr], the pEC50 under setting [1] is 9.00 to 12.00. Same read-out and setting: then `COC(=O)N[C@H](C(=O)N1CC=C[C@H]1c1nc(-c2csc3c(-c4ccc(-c5cnc([C@@H]6CCCN6C(=O)[C@H](NC(=O)OC)c6ccccc6)[nH]5)cc4)csc23)c[nH]1)C(C)C` [6ft], with 9.00 to 12.00; and `COC(=O)N[C@H](C(=O)N1CCC[C@H]1c1ncc(-c2ccc(-c3ccc(-c4cnc([C@@H]5C=CCN5C(=O)[C@@H](NC(=O)OC)C5CCCC5)[nH]4)cc3)cc2)[nH]1)C(C)C` [6dh], with 9.00 to 12.00; and `COC(=O)N[C@H](C(=O)N1CCCC[C@H]1c1nc(-c2ccc(-c3ccc(-c4c[nH]c([C@@H]5COCCN5C(=O)[C@@H](NC(=O)OC)C(C)C)n4)cc3)cc2)c[nH]1)C(C)C` [6aj], with 9.00 to 12.00. Turning to `COC(=O)NC(C(=O)N1CCC[C@H]1c1ncc(-c2cc3sc(-c4ccc(-c5cnc([C@@H]6CN(C(=O)N7Cc8cc9c(cc8C7)OCO9)CN6C(=O)[C@@H](NC(=O)OC)C(C)C)[nH]5)cc4)cc3s2)[nH]1)c1ccccc1` (stereo partly drawn) [6bw], the pEC50 under setting [1] was 9.00 to 12.00.

As usually defined, the pEC50 is −log10 of the EC50, conventionally taken in molar units.
